Test results as given in patent US8188085B2, “Antifungal agents” (Merck Sharp & Dohme Corp., priority 2008, dated 2012).
Structures can show the parent of a compound that is named as a salt.

molecular target: glucan synthase (GS) prepared from Candida albicans MY1055 (Candida albicans, UniProt O13428); assay: Glucan synthase inhibition (polymerization assay, 96-well); assay type: biochemical; conditions: not given
Description: The in vitro evaluation of glucan synthase inhibitory activity of compounds was measured in a polymerization assay in 96-well format. Each well contained 100 μL of ^3H-UDPG at 0.5 mM (6000 to 8000 dpm/nmol), 50 mM HEPES pH 7.5 (Sigma), 10% w/v glycerol (Sigma), 1.5 mg/mL bovine serum albumin (Sigma A 9647. Lot 44H0190), 25 mM KF (Fisher), 1 mM EDTA (Gibco ULTRAPURE), 25 μM GTP-γ-S, enzyme sufficient to give 3 to 6 nmoles incorporation during the 60 min incubation at 22° C., and test compound added from wells in 3-fold serial dilutions in 100% DMSO (1 μL/well). The reaction was stopped by the addition of 100 μL of 20% trichloroacetic acid. Plates were chilled for a minimum of 10 min, and precipitated glucan collected by filtration on GF/C plates (Packard UNIFILTER®-96), washed with 5 cycles of water (about 1 mL/well each cycle) using a Packard FILTERMATE HARVESTER. 40 μL/well scintillation fluid (Packard ULTIMA GOLD TM-XR) was added and the sealed plates counted in a WALLAC BETA counter in top-counting mode at an efficiency of approximately 40%.
Stock solutions were stored at 10 mg/mL in DMSO at −20° C. For each new enzyme preparation, the initial titration performed started at 1 mg/mL, which was prepared by making a 10-fold dilution in DMSO (5 μL to 50 μL). 40 μL of this stock was placed in column 12 of a round-bottomed 96-well microtiter plate. 40 μL DMSO was added to columns 1 to 11 in the same row and ten 3-fold serial dilutions performed, by transferring 20 μL from column 12 to column 11 etc., with 4 mixings before each transfer. No test compound was transferred to from column 2 to column 1. Duplicate aliquots of 1 μL of all 12 dilutions were then transferred to the side walls of a 96-well Bioblock 1.1 mL plate (Fisher brand) to create two rows.
Graphs of the primary data were created in PRISM software (the average of two determinations) using PRISM's curve fitting program (sigmoidal dose response non-linear regression). The amount of compound required to inhibit glucan synthase activity by 50% in this assay (IC50−ng/mL) was calculated.
Routine analysis was performed with glucan synthase (GS) prepared from Candida albicans MY1055 by the following procedure: MY1055 was grown in 10 liters YPD medium (10 g yeast extract, 20 g tryptone, 20 g glucose per liter) with vigorous shaking at 30° C., to early stationary phase. Cells were harvested by centrifugation, the pellet was washed and frozen at −70° C. until breakage. Thawed pellets were shaken with an equal volume of breakage buffer (50 mM HEPES pH 7.4, 10% glycerol, 1 mM EDTA, 1 mM PMSF, 1 mM DTT) and 4 times their weight of 0.5 mm acid washed glass beads for 2 hours at 4° C. Extent of breakage was assessed visually at 40× magnification. After low speed centrifugation to remove cell debris, the supernatant was centrifuged at 100,000×g for 60 min. to separate membranes plus ribosomes from cytoplasmic components. Membranes were further washed two additional times with breakage buffer using the same centrifugation conditions and finally suspended in breakage buffer at 25 to 30 mg/mL protein (Biorad) for storage at −70° C. Extraction of GS activity from membranes was performed at a protein concentration of 5 mg/mL in extraction buffer (50 mM NaPO4 pH 7.5, 0.1 M KCl, 0.1M Na citrate, 20% glycerol, 5 μM GTP-γ-S, 1 mM DTT, 1 mM PMSF, 3 μg/mL pepstatin) plus 0.25% W1 by gentle mixing at 4° C. for 60 min, followed by centrifugation at 100,000×g for 60 min. After centrifugation, clear supernatant was removed from a pellet consisting of a hard layer usually with small amounts of gelatinous unextracted membranes above it.
Trapping was initiated immediately by 5-fold dilution in trapping buffer (50 mM HEPES pH 7.5, 10 mM KF, 1 mM EDTA, 2 mg/mL BSA) plus 2.5 mM UDPG and 10 μM GTP-γ-S. After incubation at 25° C. for 60 to 90 minutes, glucan was harvested by low speed centrifugation (3,000×g, 10 min). […]

glucan synthase (GS) prepared from Candida albicans MY1055, sequence (O13428 1-1897): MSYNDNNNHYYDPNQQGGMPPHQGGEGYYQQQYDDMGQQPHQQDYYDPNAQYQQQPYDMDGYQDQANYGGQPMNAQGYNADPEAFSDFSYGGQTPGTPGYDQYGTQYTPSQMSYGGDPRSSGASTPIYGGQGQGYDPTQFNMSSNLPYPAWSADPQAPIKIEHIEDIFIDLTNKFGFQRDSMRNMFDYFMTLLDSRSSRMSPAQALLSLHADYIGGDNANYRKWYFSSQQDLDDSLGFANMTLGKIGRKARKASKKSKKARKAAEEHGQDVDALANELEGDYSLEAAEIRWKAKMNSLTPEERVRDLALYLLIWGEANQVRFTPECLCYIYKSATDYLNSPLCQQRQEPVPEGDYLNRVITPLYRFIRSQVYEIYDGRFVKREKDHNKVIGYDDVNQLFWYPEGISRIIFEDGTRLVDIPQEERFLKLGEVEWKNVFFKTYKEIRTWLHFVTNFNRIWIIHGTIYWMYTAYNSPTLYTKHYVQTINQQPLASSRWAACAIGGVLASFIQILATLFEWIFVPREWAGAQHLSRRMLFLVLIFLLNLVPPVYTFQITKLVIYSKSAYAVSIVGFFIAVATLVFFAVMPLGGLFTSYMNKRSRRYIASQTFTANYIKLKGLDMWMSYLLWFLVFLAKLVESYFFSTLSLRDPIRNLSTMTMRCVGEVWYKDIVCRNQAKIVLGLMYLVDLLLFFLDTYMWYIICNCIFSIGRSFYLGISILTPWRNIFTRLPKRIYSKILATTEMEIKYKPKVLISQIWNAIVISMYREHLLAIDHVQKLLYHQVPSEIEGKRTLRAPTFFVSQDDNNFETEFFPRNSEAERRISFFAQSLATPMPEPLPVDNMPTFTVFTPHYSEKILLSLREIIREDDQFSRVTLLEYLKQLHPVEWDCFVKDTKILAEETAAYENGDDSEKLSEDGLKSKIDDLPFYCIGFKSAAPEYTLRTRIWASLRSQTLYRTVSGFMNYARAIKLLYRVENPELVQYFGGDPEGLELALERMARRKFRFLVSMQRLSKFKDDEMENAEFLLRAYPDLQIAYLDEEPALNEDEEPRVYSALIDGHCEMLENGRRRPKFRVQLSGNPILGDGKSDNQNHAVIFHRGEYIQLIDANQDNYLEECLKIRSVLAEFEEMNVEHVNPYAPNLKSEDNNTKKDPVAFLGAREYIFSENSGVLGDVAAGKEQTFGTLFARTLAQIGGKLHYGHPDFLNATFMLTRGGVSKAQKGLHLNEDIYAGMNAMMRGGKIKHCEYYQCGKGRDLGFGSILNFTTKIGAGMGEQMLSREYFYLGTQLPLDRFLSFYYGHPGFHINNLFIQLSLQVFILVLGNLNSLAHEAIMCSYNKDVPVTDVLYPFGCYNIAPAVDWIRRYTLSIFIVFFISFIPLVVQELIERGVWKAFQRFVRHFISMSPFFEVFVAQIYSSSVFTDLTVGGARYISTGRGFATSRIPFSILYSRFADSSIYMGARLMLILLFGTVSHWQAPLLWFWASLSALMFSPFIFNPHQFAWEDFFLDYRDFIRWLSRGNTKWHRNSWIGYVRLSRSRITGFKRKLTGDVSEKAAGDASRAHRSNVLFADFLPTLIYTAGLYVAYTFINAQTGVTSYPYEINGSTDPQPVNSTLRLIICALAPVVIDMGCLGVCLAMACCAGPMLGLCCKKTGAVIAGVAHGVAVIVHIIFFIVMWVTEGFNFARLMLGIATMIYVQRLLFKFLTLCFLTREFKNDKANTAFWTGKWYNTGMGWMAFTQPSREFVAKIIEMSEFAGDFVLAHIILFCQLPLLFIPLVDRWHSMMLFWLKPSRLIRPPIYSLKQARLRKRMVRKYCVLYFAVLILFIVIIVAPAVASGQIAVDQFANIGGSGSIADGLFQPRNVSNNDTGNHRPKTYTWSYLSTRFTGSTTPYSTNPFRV

**Q.** With `CC(C)[C@@H](C)[C@@]1(C)CC[C@]2(C)[C@H]3CC[C@@H]4[C@@]5(COC[C@@]4(C)[C@@H](OC[C@](C)(N)C(C)(C)C)[C@H](n4ncnc4-c4ccc[n+](C)c4)C5)C3=CC[C@@]2(C)[C@@H]1C(=O)O` [Example 264, (1S,4aR,6aS,7R,8R,10aR,10bR,12aR,14R,15R)-15-[[(2R)-2-amino-2,3,3-trimethylbutyl]oxy]-8-[(1R)-1,2-dimethylpropyl]-14-[5-(1-methyl-3-pyridiniumyl)-1H-1,2,4-triazol-1-yl]-1,6,6a,7,8,9,10,10a,10b,11,12,12a-dodecahydro-1,6a,8,10a-tetramethyl-4H-1,4a-propano-2H-phenanthro[1,2-c]pyran-7-carboxylic acid trifluoroacetate] as the compound, how does the IC50 read?
**A.** Its IC50 is 0.403 nM.

same assay, conditions: GS from C. albicans MY1055; 60 min incubation at 22° C.; read-out: Candida Albicans GS IC50 (converted)

**Q.** With `CC(C)[C@@H](C)[C@@]1(C)CC[C@]2(C)[C@H]3CC[C@@H]4[C@@]5(COC[C@@]4(C)[C@@H](OC[C@](C)(N)c4ccccc4)[C@H](n4ncnc4-c4ccncc4)C5)C3=CC[C@@]2(C)[C@@H]1C(=O)O` [Example 245, (1S,4aR,6aS,7R,8R,10aR,10bR,12aR,14R,15R)-15-[[(2R)-2-amino-2-phenylpropyl]oxy]-8-[(1R)-1,2-dimethylpropyl]-14-[5-(4-pyridinyl)-1H-1,2,4-triazol-1-yl]-1,6,6a,7,8,9,10,10a,10b,11,12,12a-dodecahydro-1,6a,8,10a-tetramethyl-4H-1,4a-propano-2H-phenanthro[1,2-c]pyran-7-carboxylic acid] as the compound, how does the IC50 read?
**A.** The IC50 was 8 nM.

**Q.** `CC(C)[C@@H](C)[C@@]1(C)CC[C@]2(C)[C@H]3CC[C@@H]4[C@@]5(COC[C@@]4(C)[C@@H](OC[C@](C)(N)C(C)(C)C)[C@H](n4ncnc4-c4ccc(C(N)=O)nc4)C5)C3=CC[C@@]2(C)[C@@H]1C(=O)O` [Example 221, (1S,4aR,6aS,7R,8R,10aR,10bR,12aR,14R,15R)-14-[5-[6-(aminocarbonyl)-3-pyridinyl]-1H-1,2,4-triazol-1-yl]-15-[[(2R)-2-amino-2,3,3-trimethylbutyl]oxy]-8-[(1R)-1,2-dimethylpropyl]-1,6,6a,7,8,9,10,10a,10b,11,12,12a-dodecahydro-1,6a,8,10a-tetramethyl-4H-1,4a-propano-2H-phenanthro[1,2-c]pyran-7-carboxylic acid] was tested. Which IC50 did it give?
**A.** The IC50 was 3.88 nM.

**Q.** Which IC50 does the source give for `CCOC(=O)c1nccn1[C@@H]1C[C@@]23COC[C@](C)([C@@H]2CC[C@H]2C3=CC[C@@]3(C)[C@H](C(=O)O)[C@@](C)([C@H](C)C(C)C)CC[C@]23C)[C@H]1OC[C@](C)(N)C(C)C` [Example 300, (1S,4aR,6aS,7R,8R,10aR,10bR,12aR,14R,15R)-15-[[(2R)-2-amino-2,3-dimethylbutyl]oxy]-8-[(1R)-1,2-dimethylpropyl]-14-[2-(ethoxycarbonyl)-1H-imidazol-1-yl]-1,6,6a,7,8,9,10,10a,10b,11,12,12a-dodecahydro-1,6a,8,10a-tetramethyl-4H-1,4a-propano-2H-phenanthro[1,2-c]pyran-7-carboxylic acid] here?
**A.** The IC50 was 675 nM.

**Q.** How did the IC50 turn out when `CNC(=O)c1ncnn1[C@@H]1C[C@@]23COC[C@](C)([C@@H]2CC[C@H]2C3=CC[C@@]3(C)[C@H](C(=O)O)[C@@](C)([C@H](C)C(C)C)CC[C@]23C)[C@H]1OCC1(N)CCOCC1` [Example 112, (1S,4aR,6aS,7R,8R,10aR,10bR,12aR,14R,15R)-15-[(4-aminotetrahydro-2H-pyran-4-yl)methoxy]-8-[(1R)-1,2-dimethylpropyl]-14-[5-[(methylamino)carbonyl]-1H-1,2,4-triazol-1-yl]-1,6,6a,7,8,9,10,10a,10b,11,12,12a-dodecahydro-1,6a,8,10a-tetramethyl-4H-1,4a-propano-2H-phenanthro[1,2-c]pyran-7-carboxylic acid] was run?
**A.** The IC50 was 9.86 nM.

**Q.** With `CC(C)[C@@H](C)[C@@]1(C)CC[C@]2(C)[C@H]3CC[C@@H]4[C@@]5(COC[C@@]4(C)[C@@H](OC[C@](C)(N)C(C)(C)C)[C@H](n4ncnc4S(N)(=O)=O)C5)C3=CC[C@@]2(C)[C@@H]1C(=O)O` [Example 123C, (1S,4aR,6aS,7R,8R,10aR,10bR,12aR,14R,15R)-14-[5-(aminosulfonyl)-1H-1,2,4-triazol-1-yl]-15-[[(2R)-2-amino-2,3,3-trimethylbutyl]oxy]-8-[(1R)-1,2-dimethylpropyl]-1,6,6a,7,8,9,10,10a,10b,11,12,12a-dodecahydro-1,6a,8,10a-tetramethyl-4H-1,4a-propano-2H-phenanthro[1,2-c]pyran-7-carboxylic acid] as the compound, how does the IC50 read?
**A.** The IC50 was 5.46 nM.

**Q.** For `CC(C)[C@@H](C)[C@@]1(C)CC[C@]2(C)[C@H]3CC[C@@H]4[C@@]5(COC[C@@]4(C)[C@@H](OC[C@](C)(N)C(C)C)[C@H](n4ncnc4-c4ccoc4)C5)C3=CC[C@@]2(C)[C@@H]1C(=O)O` [Example 144, (1S,4aR,6aS,7R,8R,10aR,10bR,12aR,14R,15R)-15-[[(2R)-2-amino-2,3-dimethylbutyl]oxy]-8-[(1R)-1,2-dimethylpropyl]-14-[5-(3-furanyl)-1H-1,2,4-triazol-1-yl]-1,6,6a,7,8,9,10,10a,10b,11,12,12a-dodecahydro-1,6a,8,10a-tetramethyl-4H-1,4a-propano-2H-phenanthro[1,2-c]pyran-7-carboxylic acid], which IC50 is on record?
**A.** Its IC50 is 8.51 nM.

**Q.** With `CC(C)[C@@H](C)[C@@]1(C)CC[C@]2(C)[C@H]3CC[C@@H]4[C@@]5(COC[C@@]4(C)[C@@H](OC[C@](C)(N)C(C)C)[C@H](n4nc(Br)nc4[N+](=O)[O-])C5)C3=CC[C@@]2(C)[C@@H]1C(=O)O` (single isomer, unassigned) [Example 29B] as the compound, how does the IC50 read?
**A.** The IC50 was 81.3 nM.

**Q.** Which IC50 does the source give for `CC(C)[C@@H](C)[C@@]1(C)CC[C@]2(C)[C@H]3CC[C@@H]4[C@@]5(COC[C@@]4(C)[C@@H](OC[C@](C)(N)C(C)C)[C@H](n4ncnc4-c4ccc(O)nc4)C5)C3=CC[C@@]2(C)[C@@H]1C(=O)O` [Example 199, (1S,4aR,6aS,7R,8R,10aR,10bR,12aR,14R,15R)-15-[[(2R)-2-amino-2,3-dimethylbutyl]oxy]-8-[(1R)-1,2-dimethylpropyl]-14-[5-(6-hydroxy-3-pyridinyl)-1H-1,2,4-triazol-1-yl]-1,6,6a,7,8,9,10,10a,10b,11,12,12a-dodecahydro-1,6a,8,10a-tetramethyl-4H-1,4a-propano-2H-phenanthro[1,2-c]pyran-7-carboxylic acid] here?
**A.** The IC50 was 0.546 nM.

**Q.** Which IC50 does the source give for `CC(C)[C@@H](C)[C@@]1(C)CC[C@]2(C)[C@H]3CC[C@@H]4[C@@]5(COC[C@@]4(C)[C@@H](OC[C@](C)(N)C(C)C)[C@H](n4ncnc4N4CCOCC4)C5)C3=CC[C@@]2(C)[C@@H]1C(=O)O` [Example 148, (1S,4aR,6aS,7R,8R,10aR,10bR,12aR,14R,15R)-15-[[(2R)-2-amino-2,3-dimethylbutyl]oxy]-8-[(1R)-1,2-dimethylpropyl]-14-[5-(4-morpholinyl)-1H-1,2,4-triazol-1-yl]-1,6,6a,7,8,9,10,10a,10b,11,12,12a-dodecahydro-1,6a,8,10a-tetramethyl-4H-1,4a-propano-2H-phenanthro[1,2-c]pyran-7-carboxylic acid] here?
**A.** The IC50 was 18 nM.
